This is an account of results in US7192906B2, “Substituted pyrazole derivatives, production process thereof, and herbicide compositions containing the derivatives” (SDS Biotech K.K., priority 2001, dated 2007).

Common to all, as to type: in vivo
Data set [1] relates to Chenopodium album. In words: Test Example 1 upland field foliage treatment. Conditions: Table 4, upland field foliage treatment, index 0-5. In a few lines:
(§1)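 Post-emergence foliar spray of water-diluted wettable powder at 1 kg active ingredient per hectare, applied 14 days after sowing in upland soil. Weed control or crop phytotoxicity rated 21 days later on a 0–5 scale (5: ≥90%, 0: <10%).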

Data set [2] relates to Digitaria adscendens. Kind of data set: Test Example 1 upland field foliage treatment. Conditions: Table 4, upland field foliage treatment, index 0-5. In a few lines:
as §1

In data set [3] the test system is Setaria viridis. In words: Test Example 1 upland field foliage treatment. Conditions: Table 4, upland field foliage treatment, index 0-5. In a few lines: as §1
The test system of data set [4] is Stellaria media. Kind of data set: Test Example 1 upland field foliage treatment. Conditions: Table 4, upland field foliage treatment, index 0-5. In a few lines:
as §1

The test system of data set [5] is soybean (Glycine max). Kind of data set: Test Example 1 upland field foliage treatment, crop phytotoxicity. Conditions: Table 4, upland field foliage treatment, index 0-5. Put shortly:
as §1

Data set [6] relates to wheat (Triticum aestivum). Described as above. Conditions: Table 4, upland field foliage treatment, index 0-5. In a few lines: as §1
Data set [7] deals with Chenopodium album. In words: Test Example 2 upland soil treatment. Conditions: Table 5, upland soil treatment, index 0-5. In a few lines: (§2)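 Pre-emergence soil application the day after sowing, active ingredient at 1 kg per hectare as diluted wettable powder, seeds covered with about 1 cm soil. Assessed 21 days after application on a 0–5 scale (5 = ≥90% herbicidal effect or phytotoxicity; 0 = <10%).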

For data set [8], the system named is Digitaria adscendens. In words: Test Example 2 upland soil treatment. Conditions: Table 5, upland soil treatment, index 0-5. In a few lines:
as §2

For data set [9], the system named is Setaria viridis. Kind of data set: Test Example 2 upland soil treatment. Conditions: Table 5, upland soil treatment, index 0-5. Put shortly: as §2
Data set [10] deals with Stellaria media. Kind of data set: Test Example 2 upland soil treatment. Conditions: Table 5, upland soil treatment, index 0-5. In a few lines: as §2
In data set [11] the test system is soybean (Glycine max). In words: Test Example 2 upland soil treatment, crop phytotoxicity. Conditions: Table 5, upland soil treatment, index 0-5. Put shortly:
as §2

The test system of data set [12] is wheat (Triticum aestivum). The data set is described as above. Conditions: Table 5, upland soil treatment, index 0-5. In a few lines:
as §2

Data set [13] concerns Ammannia multiflora. In words: Test Example 3 paddy field treatment. Conditions: Table 6, paddy field treatment, active ingredient 1 kg per hectare, 21st day after dropping, index 0-5. Put shortly: (§3)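 Weed seeds sown in puddled paddy soil under 4 cm water, with two-leaf Koshihikari rice transplanted; 10 days later a wettable powder was applied to the water surface at 1 kg active ingredient/ha. Scored 21 days after application on a 0–5 scale (0 = <10%, 5 = ≥90% herbicidal effect or phytotoxicity).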

In data set [14] the test system is Echinochloa crusgalli. In words: Test Example 3 paddy field treatment. Conditions: Table 6, paddy field treatment, active ingredient 1 kg per hectare, 21st day after dropping, index 0-5. In a few lines:
as §3

Data set [15] relates to Monochoria vaginalis. In words: Test Example 3 paddy field treatment. Conditions: Table 6, paddy field treatment, active ingredient 1 kg per hectare, 21st day after dropping, index 0-5. In a few lines: as §3
For data set [16], the system named is Scirpus juncoides. In words: Test Example 3 paddy field treatment. Conditions: Table 6, paddy field treatment, active ingredient 1 kg per hectare, 21st day after dropping, index 0-5. In a few lines:
as §3

In data set [17] the test system is Rice (Oryza sativa). Kind of data set: Test Example 3 paddy field treatment, crop phytotoxicity. Conditions: Table 6, paddy field treatment, transplanted rice, active ingredient 1 kg per hectare, 21st day after dropping, index 0-5. In a few lines:
as §3

Consider `C=CCON=C(Cn1cc(C)c(-c2ccccc2)n1)C(=O)NC` [Compound 105], for which the “Herbicidal activity CA: Chenopodium album” value (“Herbicidal activity CA” for short) in data set [1] was 5 (herbicidal effect of not less than 90%, or phytotoxicity of 90% or more); in data set [7], 4 (herbicidal effect of not less than 70% and less than 90%, or phytotoxicity of 70% or more and less than 90%). Further, the “Herbicidal activity DA: Digitaria adscendens” value (“Herbicidal activity DA” for short) in data set [2] was 5 (herbicidal effect of not less than 90%, or phytotoxicity of 90% or more); in data set [8], 4 (herbicidal effect of not less than 70% and less than 90%, or phytotoxicity of 70% or more and less than 90%). Further, the “Herbicidal activity SV: Setaria viridis” value in data set [3] is 5 (herbicidal effect of not less than 90%, or phytotoxicity of 90% or more); in data set [9], 4 (herbicidal effect of not less than 70% and less than 90%, or phytotoxicity of 70% or more and less than 90%). For the same compound, the “Herbicidal activity SM: Stellaria media” value is 5 (herbicidal effect of not less than 90%, or phytotoxicity of 90% or more) in [4]; 4 (herbicidal effect of not less than 70% and less than 90%, or phytotoxicity of 70% or more and less than 90%) in data set [10]. Also, the “Herbicidal activity (phytotoxicity) GM: Soybean (Glycine max)” value (shortened to “Herbicidal activity (phytotoxicity) GM”) is 0 (herbicidal effect of not less than 0% and less than 10%, or phytotoxicity of 0% or more and less than 10%) in [5]; 0 (herbicidal effect of not less than 0% and less than 10%, or phytotoxicity of 0% or more and less than 10%) in data set [11]. In addition, the “Herbicidal activity (phytotoxicity) TA: Wheat (Triticum aestivum)” value (from here on “Herbicidal activity (phytotoxicity) TA”) in data set [6] was 0 (herbicidal effect of not less than 0% and less than 10%, or phytotoxicity of 0% or more and less than 10%); in data set [12], 0 (herbicidal effect of not less than 0% and less than 10%, or phytotoxicity of 0% or more and less than 10%). The “Herbicidal activity AM” value in [13] is on record as 5 (herbicidal effect of not less than 90%, or phytotoxicity of 90% or more). Further, in data set [14], the “Herbicidal activity EC” value is 4 (herbicidal effect of not less than 70% and less than 90%, or phytotoxicity of 70% or more and less than 90%). Besides, in data set [15], the “Herbicidal activity MV” value is reported as 5 (herbicidal effect of not less than 90%, or phytotoxicity of 90% or more). For the same compound, in data set [16], the “Herbicidal activity SJ” value is 4 (herbicidal effect of not less than 70% and less than 90%, or phytotoxicity of 70% or more and less than 90%). In data set [17], the “Herbicidal activity (phytotoxicity) OS” value is 0 (herbicidal effect of not less than 0% and less than 10%, or phytotoxicity of 0% or more and less than 10%).
For the compound `CNC(=O)C(Cn1cc(C)c(-c2ccc(C=NOC)cc2)n1)=NOC` [Compound 111], the “Herbicidal activity CA” value in data set [1] was 5 (herbicidal effect of not less than 90%, or phytotoxicity of 90% or more); in data set [7], 5 (herbicidal effect of not less than 90%, or phytotoxicity of 90% or more). Moreover, the “Herbicidal activity DA” value in [2] was 4 (herbicidal effect of not less than 70% and less than 90%, or phytotoxicity of 70% or more and less than 90%); in [8], 4 (herbicidal effect of not less than 70% and less than 90%, or phytotoxicity of 70% or more and less than 90%). The “Herbicidal activity SV: Setaria viridis” value in data set [3] is 4 (herbicidal effect of not less than 70% and less than 90%, or phytotoxicity of 70% or more and less than 90%); in data set [9], 4 (herbicidal effect of not less than 70% and less than 90%, or phytotoxicity of 70% or more and less than 90%). The “Herbicidal activity SM: Stellaria media” value in data set [4] is listed as 5 (herbicidal effect of not less than 90%, or phytotoxicity of 90% or more); in data set [10], 5 (herbicidal effect of not less than 90%, or phytotoxicity of 90% or more). The “Herbicidal activity (phytotoxicity) GM” value in data set [5] was 0 (herbicidal effect of not less than 0% and less than 10%, or phytotoxicity of 0% or more and less than 10%); in [11], 0 (herbicidal effect of not less than 0% and less than 10%, or phytotoxicity of 0% or more and less than 10%). Also, the “Herbicidal activity (phytotoxicity) TA” value was 0 (herbicidal effect of not less than 0% and less than 10%, or phytotoxicity of 0% or more and less than 10%) in [6]; 0 (herbicidal effect of not less than 0% and less than 10%, or phytotoxicity of 0% or more and less than 10%) in [12]. Further, the “Herbicidal activity AM” value in data set [13] is on record as 5 (herbicidal effect of not less than 90%, or phytotoxicity of 90% or more). For the same compound, the “Herbicidal activity EC” value in [14] is 5 (herbicidal effect of not less than 90%, or phytotoxicity of 90% or more). Besides, the “Herbicidal activity MV” value in data set [15] was 5 (herbicidal effect of not less than 90%, or phytotoxicity of 90% or more). In [16], the “Herbicidal activity SJ” value is given as 5 (herbicidal effect of not less than 90%, or phytotoxicity of 90% or more). The “Herbicidal activity (phytotoxicity) OS” value in data set [17] was 0 (herbicidal effect of not less than 0% and less than 10%, or phytotoxicity of 0% or more and less than 10%).
As for `CON=C(Cn1cc(C)c(-c2ccccc2)n1)C(=O)N1CCCC1` [Compound 118], the “Herbicidal activity CA” value in data set [1] was 4 (herbicidal effect of not less than 70% and less than 90%, or phytotoxicity of 70% or more and less than 90%); in data set [7] it was 4 (herbicidal effect of not less than 70% and less than 90%, or phytotoxicity of 70% or more and less than 90%). The “Herbicidal activity DA” value in data set [2] is 4 (herbicidal effect of not less than 70% and less than 90%, or phytotoxicity of 70% or more and less than 90%); in data set [8] it was 3 (herbicidal effect of not less than 50% and less than 70%, or phytotoxicity of 50% or more and less than 70%). Further, the “Herbicidal activity SV: Setaria viridis” value in data set [3] is 3 (herbicidal effect of not less than 50% and less than 70%, or phytotoxicity of 50% or more and less than 70%); in data set [9] it was 3 (herbicidal effect of not less than 50% and less than 70%, or phytotoxicity of 50% or more and less than 70%). Moreover, the “Herbicidal activity SM: Stellaria media” value in data set [4] was 5 (herbicidal effect of not less than 90%, or phytotoxicity of 90% or more); in data set [10], 4 (herbicidal effect of not less than 70% and less than 90%, or phytotoxicity of 70% or more and less than 90%). The “Herbicidal activity (phytotoxicity) GM” value is 0 (herbicidal effect of not less than 0% and less than 10%, or phytotoxicity of 0% or more and less than 10%) in [5]; 0 (herbicidal effect of not less than 0% and less than 10%, or phytotoxicity of 0% or more and less than 10%) in [11]. In addition, the “Herbicidal activity (phytotoxicity) TA” value is 0 (herbicidal effect of not less than 0% and less than 10%, or phytotoxicity of 0% or more and less than 10%) in data set [6]; 0 (herbicidal effect of not less than 0% and less than 10%, or phytotoxicity of 0% or more and less than 10%) in [12]. For the same compound, the “Herbicidal activity AM” value in data set [13] was 4 (herbicidal effect of not less than 70% and less than 90%, or phytotoxicity of 70% or more and less than 90%). Also, the “Herbicidal activity EC” value in data set [14] was 3 (herbicidal effect of not less than 50% and less than 70%, or phytotoxicity of 50% or more and less than 70%). Further, in data set [15], the “Herbicidal activity MV” value is 4 (herbicidal effect of not less than 70% and less than 90%, or phytotoxicity of 70% or more and less than 90%). In addition, the “Herbicidal activity SJ” value in data set [16] is 4 (herbicidal effect of not less than 70% and less than 90%, or phytotoxicity of 70% or more and less than 90%). Besides, the “Herbicidal activity (phytotoxicity) OS” value in [17] is 0 (herbicidal effect of not less than 0% and less than 10%, or phytotoxicity of 0% or more and less than 10%).
